Drawing on patent US7709465B2, “Phosphorous containing compounds including triphenylmethylphosphonate esters for the treatment of melanoma and other cancers” (The Board of Trustees of the University of Illinois, priority 2006, dated 2010), this text covers IC50 for one compound.

Molecules are shown by their SMILES. pIC50: −log10 of the molar value.

What all share (assay type): cell-based
For one test, the system named is CRL-1782. Nature of the test: High-throughput cell death assay I, CRL-1782. The note with it: CRL-1782, melanoma (human); read-out: diethyl TPMP IC50. An excerpt: (§1) Compound CX5 was further tested using the same high-throughput cell death assay I for activity in inducing death in multiple cell lines representing a variety of cancer types.
Another test concerns NCI-H226. Description: High-throughput cell death assay I, NCI-H226. The note with it: NCI-H226, lung (human); read-out: diethyl TPMP IC50.
From the text: as §1

A further test concerns U-937. Nature of the test: High-throughput cell death assay I, U-937. The settings on record: U-937, lymphoma (human); read-out: diethyl TPMP IC50.
From the text: (§2) According to the American Type Culture Collection (ATCC), U-937 is a human cell line of histiocytic lymphoma tissue with monocyte morphology. See Sundstrom C, Nilsson K, Int. J. Cancer 17: 565-577, 1976. Also according to ATCC, HL-60 is a human cell line of a tissue type described as peripheral blood, promyeloblast, and acute promyelocytic leukemia, with myeloblastic morphology. See Gallagher R, et al., Blood 54: 713-733, 1979.
as §1

A further test concerns MDA-MB-231. Description: High-throughput cell death assay I, MDA-MB-231. The note with it: Homo sapiens, read-out: diethyl TPMP IC50.
From the text: as §1

Another test relates to ACHN. Nature of the test: High-throughput cell death assay I, ACHN. The note with it: renal (human), read-out: diethyl TPMP IC50.
From the text: as §1

A further test has as its system Hs578t. Description: High-throughput cell death assay I, Hs578t. The settings on record: Hs-578T, breast (human), read-out: diethyl TPMP IC50.
From the text: as §1

A further test concerns K562. Description: High-throughput cell death assay I, K562. The settings on record: K562, leukemia (CML, human); read-out: diethyl TPMP IC50.
From the text: as §1

A further test relates to SK-N-SH. Description: High-throughput cell death assay I, SK-N-SH. The note with it: neuroblastoma (human), read-out: diethyl TPMP IC50.
From the text: as §1

A further test deals with HL-60. Nature of the test: High-throughput cell death assay I, HL-60. The note with it: HL-60, leukemia (human); read-out: diethyl TPMP IC50.
From the text: as §2, §1

The test system of a further test is B16-F10. Description: High-throughput cell death assay I, B16-F10. The settings on record: B16-F10, melanoma (mouse); read-out: diethyl TPMP IC50.
From the text: as §1

In another test the test system is SK-MEL-5. Nature of the test: High-throughput cell death assay I, SK-MEL-5. The note with it: SK-MEL-5, melanoma (human); read-out: diethyl TPMP IC50.
From the text: as §1

With `CCOP(=O)(OCC)C(c1ccccc1)(c1ccccc1)c1ccccc1` [CX5], the pIC50 was 5.85 with CRL-1782; 5.18 in the test with NCI-H226; 4.94 in the test on U-937; 5.96 in the test on MDA-MB-231; 5.01 in the test on ACHN; 4.88 in the test on Hs578t. For the same compound, the pIC50 in the test on K562 is 5.49; in the test with SK-N-SH it was 5.74; in the test with HL-60 it was 4.88; in the test with B16-F10 it was 6.09; with SK-MEL-5 it was 5.47.

The term pIC50 denotes the negative decadic logarithm of the IC50, by convention in mol/L.
